Here are results for one molecule from ChEMBL document CHEMBL5360597, “Medicinal Chemistry Insights into the Development of Small-Molecule Kelch-Like ECH-Associated Protein 1-Nuclear Factor Erythroid 2-Related Factor 2 (Keap1-Nrf2) Protein-Protein Interaction Inhibitors” (J Med Chem, 2023).

The target of this assay is Keap1/Nrf2 (Homo sapiens, UniProt Q14145). Nature of the assay: Inhibition of Keap1 Kelch domain (unknown origin)/FITC-labelled-9mer Nrf2 (unknown origin) protein-protein interaction incubated for 30 mins by fluorescence polarisation assay. In general terms: Polarisation of emitted light reports the rotation of a fluorescent probe.
Sequence of Keap1/Nrf2 (Q16236 whole entry, the tested form may be a part): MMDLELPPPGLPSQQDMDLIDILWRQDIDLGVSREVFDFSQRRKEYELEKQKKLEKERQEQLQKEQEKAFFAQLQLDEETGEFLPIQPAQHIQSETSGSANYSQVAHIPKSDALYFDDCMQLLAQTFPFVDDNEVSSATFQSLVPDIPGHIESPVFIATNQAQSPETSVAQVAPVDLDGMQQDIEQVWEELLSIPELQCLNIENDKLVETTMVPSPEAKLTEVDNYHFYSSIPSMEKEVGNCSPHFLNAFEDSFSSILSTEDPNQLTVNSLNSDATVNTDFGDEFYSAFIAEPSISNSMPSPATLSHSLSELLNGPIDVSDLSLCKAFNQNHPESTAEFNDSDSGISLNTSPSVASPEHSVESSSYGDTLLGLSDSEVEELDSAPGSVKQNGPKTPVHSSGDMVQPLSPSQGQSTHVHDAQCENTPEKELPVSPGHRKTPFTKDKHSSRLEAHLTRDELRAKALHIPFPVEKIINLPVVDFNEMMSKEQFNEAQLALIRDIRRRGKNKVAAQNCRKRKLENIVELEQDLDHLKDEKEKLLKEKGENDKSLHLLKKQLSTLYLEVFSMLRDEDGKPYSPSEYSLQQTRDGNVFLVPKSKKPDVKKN
Sequence of Keap1/Nrf2 (Q14145 whole entry, the tested form may be a part): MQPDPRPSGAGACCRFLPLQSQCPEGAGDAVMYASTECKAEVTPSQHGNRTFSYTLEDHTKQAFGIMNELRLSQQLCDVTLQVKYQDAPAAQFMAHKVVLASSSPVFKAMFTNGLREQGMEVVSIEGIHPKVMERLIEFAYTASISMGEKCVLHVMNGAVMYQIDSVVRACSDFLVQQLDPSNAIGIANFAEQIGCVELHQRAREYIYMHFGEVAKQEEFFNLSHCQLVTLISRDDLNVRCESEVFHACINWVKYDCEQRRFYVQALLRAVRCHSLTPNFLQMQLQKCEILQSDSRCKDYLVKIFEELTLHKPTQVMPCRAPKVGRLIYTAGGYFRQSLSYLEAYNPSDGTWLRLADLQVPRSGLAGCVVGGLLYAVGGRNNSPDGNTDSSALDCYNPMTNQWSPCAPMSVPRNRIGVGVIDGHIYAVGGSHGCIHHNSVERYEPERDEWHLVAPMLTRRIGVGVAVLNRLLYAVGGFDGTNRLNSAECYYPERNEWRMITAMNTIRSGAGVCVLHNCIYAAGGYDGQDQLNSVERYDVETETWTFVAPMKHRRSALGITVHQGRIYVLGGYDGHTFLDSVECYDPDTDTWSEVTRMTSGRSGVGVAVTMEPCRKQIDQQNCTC

A word on the IC50: it is the concentration that gives 50% inhibition. Lower therefore signals greater potency. In the case of `COc1ccc(S(=O)(=O)Nc2ccc(NS(=O)(=O)c3cccnc3)cc2)cc1`, half-maximal inhibition (IC50) was put at 31.5 µM.
